Numbers after ± are expanded uncertainties.
Details: for vapor or sublimation pressure: Liquid, Gas chromatography

Row | Structure (SMILES) | vapor or sublimation pressure (298.15 K) [kPa] | vapor or sublimation pressure (310 K) [kPa] | vapor or sublimation pressure (320 K) [kPa] | vapor or sublimation pressure (330 K) [kPa] | vapor or sublimation pressure (340 K) [kPa] | vapor or sublimation pressure (350 K) [kPa] | vapor or sublimation pressure (360 K) [kPa] | vapor or sublimation pressure (370 K) [kPa] | vapor or sublimation pressure (380 K) [kPa] | vapor or sublimation pressure (390 K) [kPa] | vapor or sublimation pressure (400 K) [kPa] | vapor or sublimation pressure (410 K) [kPa] | vapor or sublimation pressure (420 K) [kPa] | vapor or sublimation pressure (430 K) [kPa] | vapor or sublimation pressure (440 K) [kPa] | vapor or sublimation pressure (450 K) [kPa] | vapor or sublimation pressure (460 K) [kPa] | vapor or sublimation pressure (470 K) [kPa] | vapor or sublimation pressure (480 K) [kPa] | vapor or sublimation pressure (490 K) [kPa] | also measured
1 | OC12CC3CC(CC(C3)C1)C2 [1-adamantanol] | 0.0019 ± 0.0002 | 0.0062 ± 0.0005 | 0.015 ± 0.002 | 0.035 ± 0.005 | 0.074 ± 0.011 | 0.15 ± 0.021 | 0.28 ± 0.038 | 0.51 ± 0.063 | 0.88 ± 0.095 | 1.5 ± 0.14 | 2.3 ± 0.19 | 3.6 ± 0.28 | 5.4 ± 0.42 | 7.9 ± 0.61 | 11 ± 0.85 | 16 ± 1.2 | 22 ± 1.7 | 29 ± 2.2 | 38 ± 3.1 | 49 ± 4.7 | vapor or sublimation pressure (500 K): 62 ± 7.6 kPa; vapor or sublimation pressure (521.2 K): 101.33 ± 10 kPa
2 | C[C@@H]1CC[C@H]2C(C)(C)[C@H]3C[C@@]12CC[C@@]3(C)O [(+)-cedrol] | 7e-05 ± 2e-05 | 0.00029 ± 0.0001 | 0.00084 ± 0.00027 | 0.0022 ± 0.0007 | 0.0055 ± 0.0018 | 0.013 ± 0.004 | 0.027 ± 0.009 | 0.054 ± 0.017 | 0.1 ± 0.031 | 0.19 ± 0.05 | 0.33 ± 0.08 | 0.55 ± 0.12 | 0.89 ± 0.16 | 1.4 ± 0.21 | 2.1 ± 0.27 | 3.1 ± 0.33 | 4.5 ± 0.4 | 6.3 ± 0.5 | 8.7 ± 0.68 | 12 ± 0.93 | vapor or sublimation pressure (500 K): 16 ± 1.2 kPa; vapor or sublimation pressure (583.5 K): 101.33 ± 15 kPa; Normal melting temperature (Crystal, visual observation): 86.00 ± 3 °C
3 | C=CC(C)(O)CC/C=C(\C)CCC=C(C)C (centres undefined) [(E)-3,7,11-trimethyldodeca-1,6,10-trien-3-ol] | 6e-05 ± 2e-05 | 0.00024 ± 8e-05 | 0.00074 ± 0.00025 | 0.0021 ± 0.0007 | 0.0053 ± 0.0016 | 0.013 ± 0.004 | 0.028 ± 0.009 | 0.058 ± 0.018 | 0.115 ± 0.033 | 0.22 ± 0.058 | 0.39 ± 0.092 | 0.67 ± 0.14 | 1.1 ± 0.2 | 1.8 ± 0.27 | 2.8 ± 0.34 | 4.3 ± 0.43 | 6.3 ± 0.54 | 9.1 ± 0.71 | 13 ± 1 | 18 ± 1.4 | vapor or sublimation pressure (500 K): 24 ± 1.9 kPa; vapor or sublimation pressure (554.7 K): 101.33 ± 13 kPa
4 | C=CC(C)(O)CC/C=C(/C)CCC=C(C)C (centres undefined) [(Z)-3,7,11-trimethyldodeca-1,6,10-trien-3-ol] | 7.5e-05 ± 4e-05 | 0.00032 ± 0.0001 | 0.001 ± 0.0003 | 0.0026 ± 0.0008 | 0.0067 ± 0.0017 | 0.016 ± 0.005 | 0.034 ± 0.011 | 0.071 ± 0.021 | 0.14 ± 0.039 | 0.26 ± 0.067 | 0.46 ± 0.11 | 0.79 ± 0.16 | 1.3 ± 0.22 | 2.1 ± 0.3 | 3.3 ± 0.4 | 4.9 ± 0.49 | 7.2 ± 0.61 | 10 ± 0.78 | 15 ± 1.2 | 20 ± 1.6 | vapor or sublimation pressure (500 K): 27 ± 2.1 kPa; vapor or sublimation pressure (550.3 K): 101.33 ± 13 kPa
